Reference: ChEMBL document CHEMBL1153884, “Oligonucleotide-polyamine conjugates: influence of length and position of 2'-attached polyamines on duplex stability and antisense effect” (2009)

Legend:
[1] = Antisense effect in human 607B cells assessed as down-regulation of bcl2 expression at 100 nM after 48 hrs by Western blot analysis relative to control; assay type: functional
Nucleic Acid [2] = assay: Duplex stability of RNA counter strand assessed as melting temperature; assay type: nucleic-acid assay
Nucleic Acid [3] = assay: Duplex stability of DNA counter strand assessed as melting temperature; assay type: nucleic-acid assay

Tm (Nucleic Acid [2]) [°C]	Tm (Nucleic Acid [3]) [°C]	SMILES	Activity [1] [%]
53.6	71.6	Cc1cn([C@H]2C[C@H](OP(O)(=S)OC[C@H]3O[C@@H](n4ccc(N)nc4=O)[C@H](O)[C@@H]3OP(O)(=S)OC[C@H]3O[C@@H](n4cc(C)c(=O)[nH]c4=O)C[C@@H]3O)[C@@H](COP(O)(=S)O[C@H]3[C@@H](O)[C@H](n4ccc(N)nc4=O)O[C@@H]3COP(O)(=S)O[C@H]3[C@@H](O)[C@H](n4ccc(N)nc4=O)O[C@@H]3COP(O)(=S)O[C@H]3[C@@H](O)[C@H](n4ccc(N)nc4=O)O[C@@H]3COP(O)(=S)O[C@H]3[C@@H](O)[C@H](n4cnc5c(N)ncnc54)O[C@@H]3COP(O)(=S)O[C@H]3[C@@H](O)[C@H](n4cnc5c(=O)[nH]c(N)nc54)O[C@@H]3COP(O)(=S)O[C@H]3[C@@H](O)[C@H](n4ccc(N)nc4=O)O[C@@H]3COP(O)(=S)O[C@H]3[C@@H](O)[C@H](n4cnc5c(=O)[nH]c(N)nc54)O[C@@H]3COP(O)(=S)O[C@H]3C[C@H](n4cc(C)c(=O)[nH]c4=O)O[C@@H]3COP(O)(=S)O[C@H]3[C@@H](O)[C@H](n4cnc5c(=O)[nH]c(N)nc54)O[C@@H]3COP(O)(=S)O[C@H]3[C@@H](O)[C@H](n4ccc(N)nc4=O)O[C@@H]3COP(O)(=S)O[C@H]3[C@@H](O)[C@H](n4cnc5c(=O)[nH]c(N)nc54)O[C@@H]3COP(O)(=S)O[C@H]3[C@@H](O)[C@H](n4ccc(N)nc4=O)O[C@@H]3COP(O)(=S)O[C@H]3[C@@H](O)[C@H](n4ccc(N)nc4=O)O[C@@H]3COP(O)(=S)O[C@H]3[C@@H](O)[C@H](n4cnc5c(N)ncnc54)O[C@@H]3COP(O)(=S)O[C@H]3[C@@H](NCCCNCCCCNCCCNCCCN)[C@H](n4ccc(=O)[nH]c4=O)O[C@@H]3CO)O2)c(=O)[nH]c1=O (stereo partly specified)	18.5
51.4	65.1	Cc1cn([C@H]2C[C@H](OP(O)(=S)OC[C@H]3O[C@@H](n4ccc(N)nc4=O)[C@H](O)[C@@H]3OP(O)(=S)OC[C@H]3O[C@@H](n4cc(C)c(=O)[nH]c4=O)C[C@@H]3O)[C@@H](COP(O)(=S)O[C@H]3[C@@H](O)[C@H](n4ccc(N)nc4=O)O[C@@H]3COP(O)(=S)O[C@H]3[C@@H](O)[C@H](n4ccc(N)nc4=O)O[C@@H]3COP(O)(=S)O[C@H]3[C@@H](O)[C@H](n4ccc(N)nc4=O)O[C@@H]3COP(O)(=S)O[C@H]3[C@@H](O)[C@H](n4cnc5c(N)ncnc54)O[C@@H]3COP(O)(=S)O[C@H]3[C@@H](O)[C@H](n4cnc5c(=O)[nH]c(N)nc54)O[C@@H]3COP(O)(=S)O[C@H]3[C@@H](O)[C@H](n4ccc(N)nc4=O)O[C@@H]3COP(O)(=S)O[C@H]3[C@@H](O)[C@H](n4cnc5c(=O)[nH]c(N)nc54)O[C@@H]3COP(O)(=S)O[C@H]3C[C@H](n4cc(C)c(=O)[nH]c4=O)O[C@@H]3COP(O)(=S)O[C@H]3[C@@H](O)[C@H](n4cnc5c(=O)[nH]c(N)nc54)O[C@@H]3COP(O)(=S)O[C@H]3[C@@H](O)[C@H](n4ccc(N)nc4=O)O[C@@H]3COP(O)(=S)O[C@H]3[C@@H](O)[C@H](n4cnc5c(=O)[nH]c(N)nc54)O[C@@H]3COP(O)(=S)O[C@H]3[C@@H](O)[C@H](n4ccc(N)nc4=O)O[C@@H]3COP(O)(=S)O[C@H]3[C@@H](O)[C@H](n4ccc(N)nc4=O)O[C@@H]3COP(O)(=S)O[C@H]3[C@@H](O)[C@H](n4cnc5c(N)ncnc54)O[C@@H]3COP(O)(=S)O[C@H]3[C@@H](NCCCCNCCN)[C@H](n4ccc(=O)[nH]c4=O)O[C@@H]3CO)O2)c(=O)[nH]c1=O (stereo partly specified)	57.6
